# “Also recorded” adds a separate entry of the source. Like-named read-outs stand apart in the source and are kept apart here. Non-standard residues stand in square brackets, D forms with d. Residues, ends and D or L forms follow the SMILES beside them. *: point of attachment. Sta = CC(C)C[C@H](N)[C@@H](O)CC(=O)O; Isovaleryl = CC(C)CC(=O)*
# Tests used:
# stress ulceration = settings: two or more days of pretreatment; Strauss et al. 1977; cited from earlier work
# gastric acid secretion [1] = settings: cited from earlier work
# [2] = test system: gastric erosions produced in rats by the oral instillation of 1.0 ml of 0.75 N HCl; assay: HCl-induced gastric erosions in rats (modified method of Robert et al.); assay type: in vivo, rat (Long Evans)
# Protocol: In the tests described below, gastric erosions produced in rats by the oral instillation of 1.0 ml of 0.75 N HCl were compared with those in rats which had been pretreated with etintidine or with etintidine and pepstatin.
# A modification of the method of Robert et al., [Gastroenterology, 77, 433-443 (1979)] was employed to produce gastric erosions. Adult male, Long Evans rats weighing 280-300 g (Blue Spruce Farms, Alton, New York) were used. The animals were individually caged and food and water were removed 24 and 18 hours, respectively, prior to testing. On the following day, etintidine was administered orally to the animals 30 minutes before 1.0 ml of 0.75 N HCl was instilled into the stomach by gavage. […]
# The stomachs were removed from the animals, cut along the greater curvature, opened, rinsed with saline and pinned out flat in a standard position for macroscopic examination and scoring of erosions. The stomachs were photographed with a Polaroid® Close Up camera (Polaroid Corporation) and scoring was determined from the photographs. […]
# Data were analyzed using the t-test for unpaired data and ED50 values were calculated from dose response data using probit analysis [Finney, Probit Analysis, 3rd ed., University Press, Cambridge, England (1971)]. […]
# [3] = Toxicity profile in pharmacological studies in animals; assay type: in vivo
# gastric acid secretion [4] = assay: Inhibitory effect on gastric acid secretion versus pepsin activity; settings: in vivo
# histamine H2 -receptor = histamine H2 -receptor (Homo sapiens, UniProt P25021); settings: Cavanagh et al. 1980; cited from earlier work
# [5] = test system: meal stimulated gastric acid secretion; settings: patients with inactive duodenal ulcers; Myers and Peterson 1980; cited from earlier work
# [6] = test system: stomach ulcers in the pylorus ligated (Shay) rat; assay: Ulcer formation in the pylorus ligated (Shay) rat; assay type: in vivo; settings: 18 hour pylorus ligated rat, 20 mg/kg po, previous studies in applicant's laboratories
# pepsin [7] = assay: Pepsin activity in the 18 hour pylorus ligated rat; assay type: in vivo; settings: 20 mg/kg po
# [8] = Absorption and fecal excretion after oral administration; assay type: in vivo, animals
# [9] = test system: stomach ulcers in the pylorus ligated (Shay) rat; settings: Umezawa et al. 1970; cited from earlier work
# duodenal ulcer = settings: cited from earlier work
# gastric ulcer = settings: cited from earlier work
# [10] = all animal species studied; Svendsen et al. 1976; cited from earlier work
# [11] = daily oral doses of 700 mg for up to three months; Svendsen et al. 1976; cited from earlier work
# pepsin [12] = settings: cited from earlier work
# pepsin [13] = settings: in the stomach; U.S. Pat. No. 4,101,650; cited from earlier work
# [14] = British Medical Journal review 1980
# [15] = patients with ulcer dyspepsia, Svendsen et al. 1976
# Chain of histamine H2 -receptor (P25021 whole entry, species assumed): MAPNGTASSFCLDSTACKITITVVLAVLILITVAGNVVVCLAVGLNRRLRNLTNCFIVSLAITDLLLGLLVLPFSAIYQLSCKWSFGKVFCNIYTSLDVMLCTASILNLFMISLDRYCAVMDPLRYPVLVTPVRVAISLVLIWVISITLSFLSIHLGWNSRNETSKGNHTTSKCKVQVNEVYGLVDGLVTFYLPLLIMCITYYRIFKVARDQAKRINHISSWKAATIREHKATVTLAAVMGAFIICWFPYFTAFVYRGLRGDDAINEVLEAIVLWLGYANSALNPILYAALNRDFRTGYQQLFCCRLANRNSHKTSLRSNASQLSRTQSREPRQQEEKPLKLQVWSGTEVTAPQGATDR
compound,measurement,setting,value
CC1(C)[C@@H](OC(=O)CCC(=O)O)CC[C@]2(C)[C@H]3C(=O)C=C4[C@@H]5C[C@@](C)(C(=O)O)CC[C@]5(C)CC[C@@]4(C)[C@]3(C)CC[C@@H]12 [carbenoxolone],ulcer formation,stress ulceration,significantly decreased ulcer formation
CN/C(=N/CCSCc1nc[nH]c1C)NC#N [cimetidine],ulcer formation,stress ulceration,significantly decreased ulcer formation
same,effect on pepsin secretion,gastric acid secretion [1]; Binder and Donaldson 1978,less marked
same,basal and stimulated gastric acid secretion,"gastric acid secretion [1]; normal volunteers, Burland et al. 1975",antagonize both basal and stimulated gastric acid secretion
same,basal and stimulated gastric acid secretion,"gastric acid secretion [1]; patients with duodenal ulcer, Longstreth et al. 1976",antagonize both basal and stimulated gastric acid secretion
C#CCN/C(=N\C#N)NCCSCc1nc[nH]c1C [etintidine],ED50 for inhibition of gastric erosions,"[2]; etintidine po 30 min before 1.0 ml 0.75 N HCl, combination also received pepstatin 20 mg/kg po 10 min before HCl, FIG. 2",62 mg/kg
same,formation of gastric erosions,"[2]; pretreatment with 17.5, 35, 70 or 140 mg/kg etintidine po",decreased the formation of gastric erosions in a dose-related manner
same,toxicity,[3],relatively nontoxic
same,toxicity profile compared with cimetidine,[3],substantially the same as that of the commercial H2 -antagonist cimetidine
same,inhibitory effect on gastric acid secretion compared with pepsin activity,gastric acid secretion [4],significantly greater than on pepsin activity
same,potency relative to cimetidine,histamine H2 -receptor,about twice as potent as cimetidine
same,meal stimulated gastric acid secretion,[5],effectively antagonizes meal stimulated gastric acid secretion
CC(C)CC(=O)N[C@H](C(=O)N[C@H](C(=O)N[C@@H](CC(C)C)[C@@H](O)CC(=O)N[C@@H](C)C(=O)N[C@@H](CC(C)C)[C@@H](O)CC(=O)O)C(C)C)C(C)C [pepstatin] (Isovaleryl-VV[Sta]A[Sta]-OH),ulcer formation,[6],antagonized ulcer formation
same,pepsin activity,pepsin [7],completely inhibited pepsin activity
same,absorption upon oral administration,[8],essentially unabsorbed; also recorded: only poorly absorbed
same,fraction of compound excreted in the feces,"[8]; animal studies, within 72 hours",more than 90%
same,formation of stomach ulcers,[9],prevent the formation of stomach ulcers
same,healing or symptomatology of duodenal ulcer versus placebo,"duodenal ulcer; 100 mg seven times a day, double-blind randomized trial, Bonnevie et al. 1979",no significant difference between pepstatin and placebo
same,benefit / healing in patients with duodenal ulcer,duodenal ulcer; [14],ineffective
same,preventing recurrent bleeding in patients admitted with haematemesis and melaena,duodenal ulcer; [14],ineffective
same,healing or symptomatology of gastric ulcer versus placebo,"gastric ulcer; 100 mg seven times a day, double-blind randomized trial, Svendsen et al. 1979",not able to detect any influence of pepstatin
same,LD50,[10],exceeded 3000 mg/kg
same,side effects,[11],no side effects were observed
same,gastric acidity,pepsin [12]; [15],no effect on the gastric acidity
same,gastric peptic activity,pepsin [12]; [15],inhibits gastric peptic activity
same,duration of inhibition of peptic activity of gastric juice,"pepsin [12]; ulcer patients, 100 mg doses seven times a day",18 hours a day
same,duration of pepsin suppression,pepsin [13],about 1 hours
Amylopectin,benefit / healing in patients with duodenal ulcer,duodenal ulcer; [14],no significant benefit
sucralfate,benefit in patients with gastric ulcer,gastric ulcer; [14],none

# Source: patent US4339439A, “Pharmaceutical methods and compositions” (Bristol-Myers Company, priority 1981, dated 1982)
